Assays:
[1] = test system: FMLP-stimulated human neutrophils (superoxide generation); assay: Human neutrophil superoxide generation, FMLP-stimulated, cytochrome C reduction; assay type: cell-based; conditions: for Effect on FMLP Induced Superoxide: stimulated (% > control) / activation at 50 µM: % above control; for inhibition at 50 µM / activation at 50 µM: Homo sapiens; for inhibition at 50 µM: inhibited at 50 μM, read-out: Effect on FMLP Induced Superoxide: inhibited (% < control); for activation at 50 µM: stimulated at 50 μM, read-out: Effect on FMLP Induced Superoxide: stimulated (% > control)
Procedure: The compounds of the invention are evaluated with respect to superoxide modulating activity according to the following assay procedure:
Human neutrophil superoxide generation:
Superoxide generation by formyl-methionyl-leucyl-phenylalanine (FMLP)-stimulated neutrophils was quantitated by the reduction of cytochrome C (Badwey, J. A., Curnutte, J. T. and Karnovsky, M. L., cis-Polyunsaturated fatty acids induce high levels of superoxide production by human neutrophils. J. Biol. Chem. 256: 12640-12643, 1981.) To 5 million neutrophils in 2.85 ml of Krebs-Ringer phosphate buffer, pH 7.2, 50 ul of inhibitor (in 10% DMSO/buffer), and 50 ul ferricytochrome C (5 mM, stock) were added and preincubated for 3 minutes at 37° C. Absorption measurements at 550 nm were recorded at start of preincubation. Fifty ul FMLP (6 μM, stock) was added to initiate reaction. A plateau was reached within 3 minutes and this reading - initial reading (before addition of FMLP) was used to calculate nanomoles of superoxide generated based on a molar extinction coefficient of 2.1×10^4 cm^-1 mole^-1.
Isolation of human neutrophils:
Human neutrophils were isolated from freshly drawn blood of healthy donors. Two ml of 5% dextran (MW 200,000-300,000) in saline was added to 10 ml aliquots of blood, mixed and placed upright for 45 min. at 37° C. Approx. 8-10 ml of the plasma-white cell suspension from the dextran sedimentation was layered on 3 ml of Ficol-paque in a 15 ml tube and centrifuged at 400 g for 30 min. The supernate, containing plasma and platelets, was discarded by aspiration, and the pellet, containing predominantly neutrophils, was resuspended in 1 ml saline. The suspension was transferred to a clean tube, and pooled with other aliquots of blood treated similarly. The pooled suspension was centrifuged at 350 g for 5 min. and supernate discarded. The pellet was resuspended in 5 ml of 0.05% NaCl with a plastic Pasteur pipette for 25 seconds to lyse contaminating red cells, then 5 ml of 1.75% NaCl added to regain isotonicity. The red cell lysing procedure was repeated, the cells suspended in appropriate buffer (depending on assay) and counted.

5-lipoxygenase = target: T1, 5-lipoxygenase (Rattus norvegicus, UniProt P12527); assay: Inhibition of 5-lipoxygenase, in vitro (5-HETE synthesis, RBL-1 100,000 x g supernatant); assay type: biochemical; conditions: RBL-1 homogenate supernatant
T1 construct: supernatant fraction of Rat Basophilic Leukemia Cell Homogenate (RBL-1) serves as a 5-lipoxygenase enzyme source; endogenous in cells; host or cells: RBL-1 (rat basophilic leukemia) cell homogenate, 100,000 x g supernatant
T1 sequence (P12527 1-673): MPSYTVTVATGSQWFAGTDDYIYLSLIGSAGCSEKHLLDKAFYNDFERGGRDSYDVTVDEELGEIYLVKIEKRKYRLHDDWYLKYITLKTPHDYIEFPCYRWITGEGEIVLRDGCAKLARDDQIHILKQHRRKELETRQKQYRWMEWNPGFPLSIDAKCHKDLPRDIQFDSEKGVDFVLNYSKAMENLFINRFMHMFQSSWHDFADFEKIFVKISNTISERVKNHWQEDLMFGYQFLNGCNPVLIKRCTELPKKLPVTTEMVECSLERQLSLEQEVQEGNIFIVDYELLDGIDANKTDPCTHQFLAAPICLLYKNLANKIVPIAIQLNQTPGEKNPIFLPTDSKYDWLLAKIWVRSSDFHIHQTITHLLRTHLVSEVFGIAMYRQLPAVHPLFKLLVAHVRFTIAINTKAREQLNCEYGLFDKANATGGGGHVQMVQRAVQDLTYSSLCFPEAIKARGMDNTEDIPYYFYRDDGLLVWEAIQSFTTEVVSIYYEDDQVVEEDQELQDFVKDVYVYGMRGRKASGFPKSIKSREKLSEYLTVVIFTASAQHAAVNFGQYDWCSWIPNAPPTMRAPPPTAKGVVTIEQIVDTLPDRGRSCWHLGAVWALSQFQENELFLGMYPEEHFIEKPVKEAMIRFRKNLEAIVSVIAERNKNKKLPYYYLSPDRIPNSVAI
Procedure: The compounds of the invention are evaluated with respect to 5-lipoxygenaseinhibition according to the following assay procedure.
Inhibition of 5-lipoxygenase, in vitro: anti-inflammatory, anti-allergy activities.
The 100,000 x g supernatant fraction of Rat Basophilic Leukemia Cell Homogenate (RBL-1) serves as a 5-lipoxygenase enzyme source. The enzyme is incubated with [1-^14 C)-arachidonic acid and Ca++ in the presence and absence of test compound. The product of 5-lipoxygenase, 5-hydroxyeicosatetraenoic acid (5-HETE), is separated by thin-layer chromatography and measured by radioactivity. A compound inhibiting 5-HETE synthesis by 30% or more is considered active at that concentration.

[2] = versus histamine; cited from earlier work

Row | IC50 (5-lipoxygenase) [nM] | Compound | Effect on FMLP Induced Superoxide: stimulated (% > control) ([1]; stimulated at 1-50 μM) [%] | other results
1 | 400 | CN1CCN(C(=O)CSCCSc2cc(C(C)(C)C)c(O)c(C(C)(C)C)c2)CC1 [Example 20, 1-[2-[[2-[[3,5-bis(1,1-dimethyethyl)-4-hydroxypheny]thio]ethyl]thio]-1-oxoethyl]-4-methylpiperazine] |  | inhibition at 50 µM ([1]; Neutrophil, % below control): 100%; Effect on FMLP Induced Superoxide: stimulated (% > control) ([1]; stimulated at 1-25 μM): 135%
2 | 150 | CC(C)(C)c1cc(SCCSCCC(=O)N2CCC(N3CCCCC3)CC2)cc(C(C)(C)C)c1O [Example 21, 1-[3-[[2-[[3,5-bis(1,1-dimethylethyl)-4-hydroxyphenyl]thio]ethyl]thio]-1-oxopropyl]-4-(1-piperidinyl)piperidine] |  | activation at 50 µM ([1]; Neutrophil): 46%
3 | 130 | CC(C)(C)c1cc(SCCSCC(=O)NCc2cccnc2)cc(C(C)(C)C)c1O [Example 15, 2-[[2-[[3,5-bis (1,1-dimethylethyl)-4-hydroxyphenyl]thio]ethyl]thio]-N-(3-pyridinylmethyl)acetamide] |  | inhibition at 50 µM ([1]; Neutrophil, % below control): 13%; Effect on FMLP Induced Superoxide: stimulated (% > control) ([1]; stimulated at 1-10 μM): 38%
4 | 160 | CN(CCc1ccccn1)C(=O)CCSCCSc1cc(C(C)(C)C)c(O)c(C(C)(C)C)c1 [Example 16, 3-[[2-[[3,5-bis(1,1-dimethylethyl)-4-hydroxyphenyl]thio]ethyl]thio]-N-methyl-N-[2-(2-pyridinyl)ethyl]propanamide] | 146 | inhibition at 50 µM ([1]; Neutrophil, % below control): 13%
5 | 160 | CC(C)(C)c1cc(SCCSCC(=O)NCc2ccccn2)cc(C(C)(C)C)c1O [Example 13, 2-[[2-[3,5-bis(1,1-dimethylethyl)-4-hydroxyphenyl]thiolethyl]thio]-N-(2-pyridinylmethyl)acetamide] | 171 | 

Further lines, the compound ahead of its results:

Row | Compound | IC50 (5-lipoxygenase) [nM] | Effect on FMLP Induced Superoxide: stimulated (% > control) ([1]; stimulated at 1-50 μM) [%] | other results
6 | C[C@H](Sc1cc(C(C)(C)C)c(O)c(C(C)(C)C)c1)[C@@H](C)SCC(=O)NCc1ccncc1 (relative stereo) [Example 17, (±)2S*-[[[2-[[3,5-bis(1,1-dimethylethyl)-4-hydroxyphenyl]thio]-1R*-methylpropyl]thio]-N-(4-pyridinylmethyl)acetamide] | 200 | 60 | 
7 | CC(=O)c1ccc(N2CCN(C(=O)CS[C@H](C)[C@H](C)Sc3cc(C(C)(C)C)c(O)c(C(C)(C)C)c3)CC2)cc1 (relative stereo) [Example 22, (±) 1-(4-acetylphenyl)-4-[2-[[2S*-[[3,5-bis(1,1-dimethylethyl)-4-hydroxyphenyl]thio]-1R*-methylpropyl]thio]-1-oxoethyl]piperazine] | 170 |  | activation at 50 µM ([1]; Neutrophil): 17%
8 | C[C@H](Sc1cc(C(C)(C)C)c(O)c(C(C)(C)C)c1)[C@@H](C)OCC(=O)N1CCN(Cc2ccccc2)CC1 (relative stereo) [Example 19, (±)1-[2-[2S*-[[3,5-bis(1,1-dimethylethyl)-4-hydroxyphenyl]thio]-1R*-methylpropoxy]-1-oxoethyl]-4-(phenylmethyl)piperazine] | 460 | 33 | 
9 | CCCCC/C=C\C\C=C/C=C/C=C/[C@@H](SC[C@H](NC(=O)CC[C@H](N)C(=O)O)C(=O)NCC(=O)O)[C@@H](O)CCCC(=O)O [LTC4] |  |  | potency in causing long lasting bronchoconstricting effects relative to histamine [2]: at least 100 times
10 | C[C@H](Sc1cc(C(C)(C)C)c(O)c(C(C)(C)C)c1)[C@@H](C)OCC(=O)O (relative stereo) [Formula IV, reference compound] |  |  | Effect on superoxide generation, in words ([1]; FMLP-stimulated human neutrophils): inhibited both superoxide generation and 5-lipoxygenase; IC50 ([1]; Neutrophil, FMLP-stimulated human neutrophils, read-out: Effect on FMLP Induced Superoxide: inhibited superoxide generation, IC50): 11000 nM
11 | C[C@H](Sc1cc(C(C)(C)C)c(O)c(C(C)(C)C)c1)[C@@H](C)OCC(=O)N(C)CCc1ccccn1 (relative stereo) [Example 14, (±)2S*-[2-[[3,5-bis(1,1-dimethylethyl)-4-hydroxyphenyl]thio]-1R*-methylpropoxy]-N-methyl-N-[2-(2-pyridinyl)ethyl]acetamide] | 220 |  | Effect on FMLP Induced Superoxide: inhibited (% < control) ([1]; inhibited at 25-50 μM, % below control): 57%; Effect on FMLP Induced Superoxide: stimulated (% > control) ([1]; stimulated at 1-10 μM): 171%

From patent US5342838A, “Phenolic thioetheramides” (G. D. Searle & Co., priority 1993, dated 1994)
